Data on 20 compounds can be found in patent publication US20240317758A1 (Halia Therapeutics, Inc., priority 2021, published 2024).

One experiment concerns IL-1β release. As to the kind of experiment: IL-1β release assay (THP-1 cells, PMA, LPS, nigericin). In kind it is cell-based. The following applies: Homo sapiens, LPS 250 ng/mL, nigericin 20 μM, cleaved IL-1β in media. Here is the method: Approximately 1.5 million THP-1 cells were plated in each well of a 6-well TC plate and incubated with 40 nM PMA in RPMI (10% FBS, 1% Penstrep) for 24 hours. The media was then removed and cells were rested in RPMI (10% FBS, 1% Penstrep) for 24 hours after which time the media was removed and cells were pre-treated for 2 hours with various concentrations of compounds of interest (typically serial 3-fold dilution in RPMI+5% FBS, concentrations ranging from 1 μM to 0.5 nM) in RPMI (5% FBS). The media was again removed and cells were incubated with 250 ng/mL LPS and compounds of interest (concentrations as above) in RMPI (5% FBS) for 2 hours. The media was removed for a last time and cells were incubated with 20 μM nigericin and compounds of interest (concentrations as above) in Opti-MEM for 30 minutes. Cell media was then collected and the amount of cleaved IL-1β was determined using a JESS instrument (Protein Simple) and standard protocols. Cleaved Il-1β antibody was obtained from Cell Signaling (catalogue #83186S) and was used at 1:20 dilution in antibody diluent 2. Protein Simple 1× anti-Rabbit HRP secondary antibody was used along with Protein Simple luminol and peroxide for chemiluminescent detection. Primary antibody incubation time was increased from 30 minutes to 60 minutes.

The target in experiment [1] is T1, full-length recombinant human NEK7 (Homo sapiens, UniProt Q8TDX7).
T1 construct: full-length recombinant human NEK7; GST (N); purchased SignalChem NO9-10G; host or cells: Sf9 insect cells (baculovirus)
As to the kind of experiment: NEK7 enzymatic assay. In kind it is biochemical. Particulars: recombinant human NEK7, casein substrate, radiolabelled ATP. The method, boiled down: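 Full-length GST-tagged human NEK7 from Sf9 cells (assay concentration 70 nM) was used with casein (assay concentration 20 μM) in Hepes pH 7.5 buffer, 1% DMSO, and compound (3-fold dilutions, 10 μM to 0.5 nM) was preincubated 20 min at room temperature. Radiolabelled ATP was added for 2 h, phosphorylation was read on P81 paper, and IC50 was fitted from % activity remaining versus vehicle.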

T1 sequence (Q8TDX7 whole entry): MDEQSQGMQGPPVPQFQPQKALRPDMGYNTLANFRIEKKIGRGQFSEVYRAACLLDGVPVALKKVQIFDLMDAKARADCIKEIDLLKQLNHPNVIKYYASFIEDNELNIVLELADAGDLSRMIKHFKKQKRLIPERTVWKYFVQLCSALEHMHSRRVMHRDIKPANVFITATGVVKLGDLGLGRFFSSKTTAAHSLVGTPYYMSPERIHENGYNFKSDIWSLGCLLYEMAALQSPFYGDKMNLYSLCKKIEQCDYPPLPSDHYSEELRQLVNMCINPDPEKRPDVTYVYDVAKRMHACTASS

For `Nc1ncnc2c1c(-c1ccc(NC(=O)Nc3ccc(CN4CCN(CCO)CC4)c(C(F)(F)F)c3)c(F)c1)cn2C1CC1` [Example I-42, 1-(4-(4-amino-7-cyclopropyl-7H-pyrrolo[2,3-d]pyrimidin-5-yl)-2-fluorophenyl)-3-(4-((4-(2-hydroxyethyl)piperazin-1-yl)methyl)-3-(trifluoromethyl)phenyl)urea], the values for the IC50 (in the experiment with IL-1β release; in experiment [1]) were < 50 nM and < 100 nM, respectively.

Turning to `COCCN1CCN(Cc2ccc(NC(=O)Nc3ccc(-c4cn(C5CC5)c5ncnc(N)c45)cc3F)cc2C(F)(F)F)CC1` [Example I-43, 1-(4-(4-amino-7-cyclopropyl-7H-pyrrolo[2,3-d]pyrimidin-5-yl)-2-fluorophenyl)-3-(4-((4-(2-methoxyethyl)piperazin-1-yl)methyl)-3-(trifluoromethyl)phenyl)urea], the IC50 with IL-1β release was 50 to 250 nM; in experiment [1] it was < 100 nM.

With `CN(C)C1CCN(Cc2ccc(NC(=O)Nc3ccc(-c4cn(C5CC5)c5ncnc(N)c45)cc3F)cc2C(F)(F)F)C1` (stereo not shown) [Example I-45, 1-(4-(4-amino-7-cyclopropyl-7H-pyrrolo[2,3-d]pyrimidin-5-yl)-2-fluorophenyl)-3-(4-((3-(dimethylamino)pyrrolidin-1-yl)methyl)-3-(trifluoromethyl)phenyl)urea], the half-inhibitory concentration (IC50) in the experiment with IL-1β release is < 50 nM; in experiment [1], < 100 nM.

Turning to `CN1CCC(Oc2ccc(NC(=O)Nc3ccc(-c4cn(C5CC5)c5ncnc(N)c45)cc3F)cc2C(F)(F)F)CC1` [Example I-47, 1-(4-(4-amino-7-cyclopropyl-7H-pyrrolo[2,3-d]pyrimidin-5-yl)-2-fluorophenyl)-3-(4-((1-methylpiperidin-4-yl)oxy)-3-(trifluoromethyl)phenyl)urea], the IC50 was < 50 nM with IL-1β release and < 100 nM in experiment [1].

With `CN1CCN(C(=O)c2ccc(NC(=O)Nc3ccc(-c4nn(C5CC5)c5ncnc(N)c45)cc3F)cc2C(F)(F)F)CC1` [Example I-49, 1-(4-(4-amino-1-cyclopropyl-1H-pyrazolo[3,4-d]pyrimidin-3-yl)-2-fluorophenyl)-3-(4-(4-methylpiperazine-1-carbonyl)-3-(trifluoromethyl)phenyl)urea], the results for the half-maximal inhibitory concentration (IC50) (with IL-1β release; in experiment [1]) were 50 to 250 nM and 100 to 500 nM, respectively.

`CCN1CCN(Cc2ccc(NC(=O)Nc3ccc(-c4nn(C5CC5)c5ncnc(N)c45)cc3F)cc2C(F)(F)F)CC1` [Example I-50, 1-(4-(4-amino-1-cyclopropyl-1H-pyrazolo[3,4-d]pyrimidin-3-yl)-2-fluorophenyl)-3-(4-((4-ethylpiperazin-1-yl)methyl)-3-(trifluoromethyl)phenyl)urea]: the IC50 in the experiment on IL-1β release is < 50 nM; in experiment [1], < 100 nM.

Consider `CC(C)N1CCN(Cc2ccc(NC(=O)Nc3ccc(-c4cn(C5CC5)c5ncnc(N)c45)cc3F)cc2C(F)(F)F)CC1` [Example I-63, 1-(4-(4-amino-7-cyclopropyl-7H-pyrrolo[2,3-d]pyrimidin-5-yl)-2-fluorophenyl)-3-(4-((4-isopropylpiperazin-1-yl)methyl)-3-(trifluoromethyl)phenyl)urea], for which the IC50 with IL-1β release was < 50 nM; in experiment [1] it was < 100 nM.

Take `Nc1ncnc2c1c(-c1ccc(NC(=O)Nc3ccc(CN4CCNCC45CC5)c(C(F)(F)F)c3)c(F)c1)cn2C1CC1` [Example I-66, 1-(4-((4,7-diazaspiro[2.5]octan-4-yl)methyl)-3-(trifluoromethyl)phenyl)-3-(4-(4-amino-7-cyclopropyl-7H-pyrrolo[2,3-d]pyrimidin-5-yl)-2-fluorophenyl)urea]: the figures for the IC50 (in the experiment on IL-1β release; in experiment [1]) were 250 to 1000 nM and < 100 nM, respectively.

As for `CN1CCN(Cc2ncc(NC(=O)Nc3ccc(-c4cn(C5CC5)c5ncnc(N)c45)cc3F)cc2C(F)(F)F)CC1` [Example I-68, 1-(4-(4-amino-7-cyclopropyl-7H-pyrrolo[2,3-d]pyrimidin-5-yl)-2-fluorophenyl)-3-(6-((4-methylpiperazin-1-yl)methyl)-5-(trifluoromethyl)pyridin-3-yl)urea], the IC50 was 50 to 250 nM in the experiment on IL-1β release and 100 to 500 nM in experiment [1].

As for `Nc1ncnc2c1c(-c1ccc(NC(=O)Nc3ccc(CN4CCN(CCO)CC4)c(C(F)F)c3)c(F)c1)cn2C1CC1` [Example I-72, 1-(4-(4-amino-7-cyclopropyl-7H-pyrrolo[2,3-d]pyrimidin-5-yl)-2-fluorophenyl)-3-(3-(difluoromethyl)-4-((4-(2-hydroxyethyl)piperazin-1-yl)methyl)phenyl)urea], the IC50 with IL-1β release is 50 to 250 nM; in experiment [1] it was < 100 nM.

Consider `Nc1ncnc2c1c(-c1ccc(NC(=O)Nc3ccc(CN4CCC(N)CC4)c(C(F)(F)F)c3)c(F)c1)cn2C1CC1` [Example I-75, 1-(4-(4-amino-7-cyclopropyl-7H-pyrrolo[2,3-d]pyrimidin-5-yl)-2-fluorophenyl)-3-(4-((4-aminopiperidin-1-yl)methyl)-3-(trifluoromethyl)phenyl)urea], for which the IC50 is > 1000 nM in the experiment on IL-1β release and 100 to 500 nM in experiment [1].

With `CN1CCN(Cc2ccc(NC(=O)Nc3ccc(-c4nn(CCO)c5ncnc(N)c45)cc3F)cc2C(F)(F)F)CC1` [Example I-76, 1-(4-(4-amino-1-(2-hydroxyethyl)-1H-pyrazolo[3,4-d]pyrimidin-3-yl)-2-fluorophenyl)-3-(4-((4-methylpiperazin-1-yl)methyl)-3-(trifluoromethyl)phenyl)urea], the IC50 was 50 to 250 nM in the experiment with IL-1β release and < 100 nM in experiment [1].

Regarding `COCCn1nc(-c2ccc(NC(=O)Nc3ccc(CN4CCN(C)CC4)c(C(F)(F)F)c3)c(F)c2)c2c(N)ncnc21` [Example I-77, 1-(4-(4-amino-1-(2-methoxyethyl)-1H-pyrazolo[3,4-d]pyrimidin-3-yl)-2-fluorophenyl)-3-(4-((4-methylpiperazin-1-yl)methyl)-3-(trifluoromethyl)phenyl)urea], the IC50 with IL-1β release is < 50 nM; in experiment [1], < 100 nM.

With `CN1CCN(Cc2ccc(NC(=O)Nc3ccc(-c4cn(C5CC5)c5ncnc(N)c45)cc3F)cc2OC(F)(F)F)CC1` [Example I-78, 1-(4-(4-amino-7-cyclopropyl-7H-pyrrolo[2,3-d]pyrimidin-5-yl)-2-fluorophenyl)-3-(4-((4-methylpiperazin-1-yl)methyl)-3-(trifluoromethoxy)phenyl)urea], the IC50 was in the range of 50 to 250 nM with IL-1β release and 100 to 500 nM in experiment [1].

`Nc1ncnc2c1c(-c1ccc(NC(=O)Nc3ccc(CN4CCNCC4)c(C(F)(F)F)c3)c(F)c1)cn2C1CC1` [Example I-79, 1-(4-(4-amino-7-cyclopropyl-7H-pyrrolo[2,3-d]pyrimidin-5-yl)-2-fluorophenyl)-3-(4-(piperazin-1-ylmethyl)-3-(trifluoromethyl)phenyl)urea]: the IC50 in the experiment with IL-1β release is 50 to 250 nM; in experiment [1], < 100 nM.

On to `CC(=O)N1CCN(Cc2ccc(NC(=O)Nc3ccc(-c4cn(C5CC5)c5ncnc(N)c45)cc3F)cc2C(F)(F)F)CC1` [Example I-80, 1-(4-((4-acetylpiperazin-1-yl)methyl)-3-(trifluoromethyl)phenyl)-3-(4-(4-amino-7-cyclopropyl-7H-pyrrolo[2,3-d]pyrimidin-5-yl)-2-fluorophenyl)urea], for which the IC50 with IL-1β release was > 1000 nM; in experiment [1] it was 100 to 500 nM.

In the case of `COCCn1cc(-c2ccc(NC(=O)Nc3ccc(CN4CCN(C)CC4)c(C(F)(F)F)c3)c(F)c2)c2c(N)ncnc21` [Example I-81, 1-(4-(4-amino-7-(2-methoxyethyl)-7H-pyrrolo[2,3-d]pyrimidin-5-yl)-2-fluorophenyl)-3-(4-((4-methylpiperazin-1-yl)methyl)-3-(trifluoromethyl)phenyl)urea], the figures for the IC50 (in the experiment on IL-1β release; in experiment [1]) were < 50 nM and < 100 nM, respectively.

For `CC(=O)N1CCC(Oc2ccc(NC(=O)Nc3ccc(-c4cn(C5CC5)c5ncnc(N)c45)cc3F)cc2C(F)(F)F)CC1` [Example I-82, 1-(4-((1-acetylpiperidin-4-yl)oxy)-3-(trifluoromethyl)phenyl)-3-(4-(4-amino-7-cyclopropyl-7H-pyrrolo[2,3-d]pyrimidin-5-yl)-2-fluorophenyl)urea], the IC50 with IL-1β release lay within 250 to 1000 nM; in experiment [1] it was 100 to 500 nM.

`Nc1ncnc2c1c(-c1ccc(NC(=O)Nc3ccc(OC4CCN(C5COC5)CC4)c(C(F)(F)F)c3)c(F)c1)cn2C1CC1` [Example I-83, 1-(4-(4-amino-7-cyclopropyl-7H-pyrrolo[2,3-d]pyrimidin-5-yl)-2-fluorophenyl)-3-(4-((1-(oxetan-3-yl)piperidin-4-yl)oxy)-3-(trifluoromethyl)phenyl)urea]: the IC50 with IL-1β release lay in the range of 50 to 250 nM; in experiment [1] it was 100 to 500 nM.

Consider `Nc1ncnc2c1c(-c1ccc(NC(=O)Nc3ccc(CN4CCN(CCF)CC4)c(C(F)(F)F)c3)c(F)c1)cn2C1CC1` [Example I-84, 1-(4-(4-amino-7-cyclopropyl-7H-pyrrolo[2,3-d]pyrimidin-5-yl)-2-fluorophenyl)-3-(4-((4-(2-fluoroethyl)piperazin-1-yl)methyl)-3-(trifluoromethyl)phenyl)urea], for which the IC50 was < 50 nM in the experiment on IL-1β release and < 100 nM in experiment [1].
